{"source": "patent US20260345598A1", "about": "(INTRA-CELLULAR THERAPIES, INC., priority 2023, published 2026)", "key": {"[1]": {"system": "PFC mTORC1-related signaling pathways", "assay": "PFC mTORC1-related signaling and neurotrophic factor genes after acute administration", "assay_type": "in vivo", "from_the_text": "As a result, glutamate release is increased which enhances AMPA mediated currents, BDNF release, and mTORC1 activation. Increased synaptogenesis has been associated with enhanced mTORC1 signaling in the PFC."}, "[2]": {"system": "patients with acute exacerbated schizophrenia", "assay": "Clinical studies in patients with acute exacerbated schizophrenia, emotional experience symptoms", "assay_type": "in vivo, human", "details": "60 mg P.O. once daily, up to 28 days, two clinical studies, vs placebo", "from_the_text": "Social avoidance can be a critical and debilitating symptom in patients suffering from anxiety disorders, especially social anxiety disorder, as well as in patients suffering from traumatic anxiety disorders. Social avoidance is often one of the key determinants of whether a person with a severe anxiety disorder is capable of maintaining familial relationships or employment relationships. […] Negative symptoms of schizophrenia can be divided into two categories: emotional experience (e.g., emotional withdrawal, passive social withdrawal, active social avoidance) and emotional expression (e.g., blunted effect, poor rapport, lack of spontaneity, and motor retardation). […] These are the symptoms that are most highly correlated with interpersonal functioning."}, "5-HT2A receptor [3]": {"biological_target": "5-HT2A receptor", "details": "read-out: 5-HT2A receptor antagonism Ki; cited from earlier work"}, "D2 receptor": {"biological_target": "D2 receptor", "details": "presynaptic D2 receptor partial agonism and postsynaptic D2 receptor antagonism; cited from earlier work"}, "[4]": {"system": "glutamatergic NMDA NR2B (GluN2B) receptors", "details": "mesolimbic; cited from earlier work"}, "NMDA and AMPA receptor": {"system": "NMDA and AMPA receptor", "details": "rat mPFC slices; cited from earlier work"}, "5-HT2A receptor [5]": {"system": "5-HT2A receptor", "details": "cited from earlier work"}, "[6]": {"system": "NMDA/AMPA receptors and downstream BDNF and mTOR signaling", "details": "compared with ketamine; cited from earlier work"}, "[7]": {"details": "in vivo; cited from earlier work"}, "right lateral PFC": {"system": "right lateral PFC", "details": "patients with MDD, after ketamine treatment; cited from earlier work"}, "[8]": {"system": "dendritic spines in cells of the frontal cortex", "details": "cited from earlier work"}, "serotonin receptor": {"system": "serotonin receptor", "details": "pre-treatment, dose blocking about 30% of 5-HT2A receptors; cited from earlier work"}, "5-HT2A receptor [9]": {"system": "5-HT2A receptor", "details": "pre-treatment; cited from earlier work"}, "[10]": {"system": "medial prefrontal cortex neurons", "details": "mouse, in vivo; cited from earlier work"}}, "data": [{"compound": "CN1CCN2c3c(cccc31)[C@@H]1CN(CCCC(=O)c3ccc(F)cc3)CC[C@@H]12", "note": "[Lumateperone, 4-((6bR,10aS)-3-methyl-2,3,6b,9,10,10a-hexahydro-1H-pyrido[3′,4′: 4,5]pyrrolo[1,2,3-de]quinoxalin-8 (7H)-yl)-1-(4-fluorophenyl)-1-butanone]", "values": [{"measurement": "PFC mTORC1-related signaling and neurotrophic factor genes", "setting": "[1]", "result": "stimulates PFC mTORC1-related signaling pathways, as well as some important genes coding for neurotrophic factors, such as BDNF and VEGF"}, {"measurement": "symptoms of emotional experience", "setting": "[2]", "result": "significant and unexpected improvement in symptoms of emotional experience compared to placebo"}, {"measurement": "Ki", "setting": "5-HT2A receptor [3]", "result": 0.0005, "unit": "µM"}, {"measurement": "Ki", "setting": "D2 receptor", "result": 0.032, "unit": "µM"}, {"measurement": "phosphorylation of NMDA NR2B (GluN2B) receptors", "setting": "[4]", "result": "stimulates phosphorylation of glutamatergic NMDA NR2B (GluN2B) receptors in a mesolimbic specific manner"}, {"measurement": "glutamatergic neurotransmission, NMDA and AMPA receptor conductance", "setting": "NMDA and AMPA receptor", "result": "enhance glutamatergic neurotransmission by effects on both NMDA and AMPA receptor conductance"}, {"measurement": "5-HT2A receptor functional activity", "setting": "5-HT2A receptor [5]", "result": "strong antagonist of the 5-HT2A receptor"}, {"measurement": "serotonin receptor agonist activity", "setting": "5-HT2A receptor [5]", "result": "does not have serotonin receptor agonist activity"}, {"measurement": "activity on NMDA/AMPA receptors and downstream BDNF and mTOR signaling", "setting": "[6]", "result": "very similar activity on NMDA/AMPA receptors and downstream BDNF and mTOR signaling as ketamine"}]}, {"compound": "CN(C)CCc1c[nH]c2cccc(O)c12", "note": "[Psilocin]", "values": [{"measurement": "5-HT2A receptor functional activity", "setting": "5-HT2A receptor [5]", "result": "strong agonist of the 5-HT2A receptor"}, {"measurement": "side effects", "setting": "[7]", "result": "can cause nausea and panic attacks"}]}, {"compound": "CNC1(c2ccccc2Cl)CCCCC1=O", "note": "(centres unmarked) [ketamine]", "values": [{"measurement": "functional connectivity in the right lateral PFC", "setting": "right lateral PFC", "result": "improved functional connectivity in the right lateral PFC"}]}, {"compound": "O=C(c1ccc(F)cc1)C1CCN(CCn2c(=O)[nH]c3ccccc3c2=O)CC1", "note": "[ketanserin]", "values": [{"measurement": "effect on psilocybin-induced growth of dendritic spines", "setting": "[8]; pre-treatment with 5-HT2A receptor antagonist", "result": "did not eliminate the psilocybin-induced growth of dendritic spines"}, {"measurement": "psilocybin-induced head twitch response", "setting": "serotonin receptor", "result": "sufficient to block the psilocybin-induced head twitch response"}, {"measurement": "5-HT2A receptors blocked", "setting": "5-HT2A receptor [9]", "result": "about 30%"}]}, {"compound": "CN(C)CCc1c[nH]c2cccc(OP(=O)(O)O)c12", "note": "[psilocybin]", "values": [{"measurement": "5-HT2A receptor functional activity", "setting": "5-HT2A receptor [5]", "result": "strong agonist of the 5-HT2A receptor"}, {"measurement": "persistence of changes in dendritic spine density", "setting": "[8]; following the single dose", "result": "at least a month"}, {"measurement": "dendritic spine formation/elimination rate", "setting": "[8]; male and female mice", "result": "increased formation rate, rather than reduced elimination rate"}, {"measurement": "dendritic spine density and spine head width", "setting": "[8]; single dose, within one day", "result": "measurable increase in dendritic spine density, as well as increased spine head width, within one day"}, {"measurement": "excitatory neurotransmission in medial prefrontal cortex (mEPSCs)", "setting": "[10]", "result": "increased excitatory neurotransmission in the medial prefrontal cortex"}]}]}
